Like-named read-outs stand apart in the source and are kept apart here.
Tests used:
P-P70S6K (T389) = assay: Cell based AlphaLISA assay, inhibition of P-P70S6K (T389) (mTORC1 substrate phosphorylation) in MDA-MB-468 cells; settings: Homo sapiens, 4 h, two to four hours at 37° C.
In short: (§1)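 Cells are exposed to inhibitor, then the assay buffer is taken off and kit lysis buffer added. Lysates undergo AlphaLISA SureFire Ultra detection in duplicate.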

P-4E-BP1 (T37/46) = assay: Cell based AlphaLISA assay, inhibition of P-4E-BP1 (T37/46) (mTORC1 substrate phosphorylation) in MDA-MB-468 cells; settings: Homo sapiens, MDA-MB-468, 4 h, two to four hours at 37° C.
In short: as §1

P-Akt (S473) = assay: Cell based AlphaLISA assay, inhibition of P-Akt (S473) (mTORC2 substrate phosphorylation) in MDA-MB-468 cells; settings: Homo sapiens, MDA-MB-468, 4 h, two to four hours at 37° C.
In short: as §1

[1] = AlphaLISA, read-out: pIC50 for Inhibition of mTORC1 and mTORC2 Substrate Phosphorylation, P-P70S6K-(T389) (converted)
[2] = AlphaLISA, read-out: pIC50 for Inhibition of mTORC1 and mTORC2 Substrate Phosphorylation, P-4E-BP1-(T37/46) (converted)
[3] = AlphaLISA, read-out: pIC50 for Inhibition of mTORC1 and mTORC2 Substrate Phosphorylation, p-AKT 1/2/3 -(S473) (converted)

Compound | IC50 (P-P70S6K (T389); [1]) | IC50 (P-4E-BP1 (T37/46); [2]) | IC50 (P-Akt (S473); [3]) | IC50 (P-P70S6K (T389); AlphaLisa SureFire Ultra, read-out: IC50 for Inhibition of mTORC1 and mTORC2 Substrate Phosphorylation, p-P70S6K-(T389)) | IC50 (P-4E-BP1 (T37/46); AlphaLisa SureFire Ultra, read-out: IC50 for Inhibition of mTORC1 and mTORC2 Substrate Phosphorylation, p-4E-BP1-(T37/46)) | IC50 (P-Akt (S473); AlphaLisa SureFire Ultra, read-out: IC50 for Inhibition of mTORC1 and mTORC2 Substrate Phosphorylation, p-AKT1/2/3-(S473))
CO/N=C1/C[C@@H]([C@H](C)C[C@@H]2CC[C@H](n3cc(CCCC(=O)NCCOCCOCCOCCC(=O)NCCOCCOCCOCCC(=O)NCCCCn4nc(-c5ccc6oc(N)nc6c5)c5c(N)ncnc54)nn3)[C@H](OC)C2)OC(=O)[C@@H]2CCCCN2C(=O)C(=O)[C@]2(O)O[C@@H](CC[C@H]2C)C[C@H](OC)/C(C)=C/C=C/C=C/[C@@H](C)C[C@@H](C)C(=O)[C@H](OC)[C@H](O)/C(C)=C/[C@H]1C [Example 171] | 10 to 1000 nM | 31.6 to 1000 nM | > 1000 nM | – | – | –
CO[C@H]1C[C@@H]2CC[C@@H](C)[C@@](O)(O2)C(=O)C(=O)N2CCCC[C@H]2C(=O)O[C@H]([C@H](C)C[C@@H]2CC[C@H](n3cc(CCCC(=O)NCCOCCOCCOCCC(=O)NCCOCCOCCOCCOCCC(=O)NCCCCn4nc(-c5cc6cc(O)ccc6[nH]5)c5c(N)ncnc54)nn3)[C@H](OC)C2)CC(=O)[C@H](C)/C=C(\C)[C@@H](O)[C@@H](OC)C(=O)[C@H](C)C[C@H](C)/C=C/C=C/C=C/1C [Example 133] | 1 to 10 nM | 3.16 to 31.6 nM | 31.6 to 1000 nM | – | – | –
CO[C@H]1C[C@@H]2CC[C@@H](C)[C@@](O)(O2)C(=O)C(=O)N2CCCC[C@H]2C(=O)O[C@H]([C@H](C)C[C@@H]2CC[C@@H](OCCCCc3cn(CCOCCOCCOCCOCCOCCOCCOCCOCCC(=O)NCCCCn4nc(-c5ccc6oc(N)nc6c5)c5c(N)ncnc54)nn3)[C@H](OC)C2)CC(=O)[C@H](C)/C=C(\C)[C@@H](O)[C@@H](OC)C(=O)[C@H](C)C[C@H](C)/C=C/C=C/C=C/1C [Example 1] | < 1 nM | < 3.16 nM | < 3.16 nM | 0.3 nM | 1 nM | 3.9 nM
CO[C@H]1C[C@@H]2CC[C@@H](C)[C@@](O)(O2)C(=O)C(=O)N2CCCC[C@H]2C(=O)O[C@H]([C@H](C)C[C@@H]2CC[C@H](n3cc(-c4cnc(N5CCN(c6ncc(C(=O)NCCOCCC(=O)NCCCCn7nc(-c8ccc9oc(N)nc9c8)c8c(N)ncnc87)cn6)CC5)nc4)nn3)[C@H](OC)C2)CC(=O)[C@H](C)/C=C(\C)[C@@H](O)[C@@H](OC)C(=O)[C@H](C)C[C@H](C)/C=C/C=C/C=C/1C [Example 109] | < 1 nM | > 1000 nM | > 1000 nM | – | – | –
CO/N=C1/C[C@@H]([C@H](C)C[C@@H]2CC[C@H](n3cc(COC(=O)NCCOCCOCCOCCC(=O)NCCOCCOCCOCCC(=O)NCCCCn4nc(-c5ccc6oc(N)nc6c5)c5c(N)ncnc54)nn3)[C@H](OC)C2)OC(=O)[C@@H]2CCCCN2C(=O)C(=O)[C@]2(O)O[C@@H](CC[C@H]2C)C[C@H](OC)/C(C)=C/C=C/C=C/[C@@H](C)C[C@@H](C)C(=O)[C@H](OC)[C@H](O)/C(C)=C/[C@H]1C [Example 153] | 1 to 10 nM | 31.6 to 1000 nM | > 1000 nM | – | – | –
CO[C@H]1C[C@@H]2CC[C@@H](C)[C@@](O)(O2)C(=O)C(=O)N2CCCC[C@H]2C(=O)O[C@H]([C@H](C)C[C@@H]2CC[C@H](n3cc(-c4cnc(N5CCN(c6ncc(C(=O)NCCOCCOCCOCCOCCOCCC(=O)NCCCCn7nc(-c8cc9cc(O)ccc9[nH]8)c8c(N)ncnc87)cn6)CC5)nc4)nn3)[C@H](OC)C2)CC(=O)[C@H](C)/C=C(\C)[C@@H](O)[C@@H](OC)C(=O)[C@H](C)C[C@H](C)/C=C/C=C/C=C/1C [Example 119] | < 1 nM | > 1000 nM | > 1000 nM | – | – | –
CO[C@H]1C[C@@H]2CC[C@@H](C)[C@@](O)(O2)C(=O)C(=O)N2CCCC[C@H]2C(=O)O[C@H]([C@H](C)C[C@@H]2CC[C@H](n3cc(COC(=O)NCCOCCOCCOCCOCCC(=O)NCc4cnc(N5CCN(c6ncc(C(=O)NCCCCn7nc(-c8ccc9oc(N)nc9c8)c8c(N)ncnc87)cn6)CC5)nc4)nn3)[C@H](OC)C2)CC(=O)[C@H](C)/C=C(\C)[C@@H](O)[C@@H](OC)C(=O)[C@H](C)C[C@H](C)/C=C/C=C/C=C/1C [Example 185] | < 1 nM | < 3.16 nM | 3.16 to 31.6 nM | – | – | –
CO[C@H]1C[C@@H]2CC[C@@H](C)[C@@](O)(O2)C(=O)C(=O)N2CCCC[C@H]2C(=O)O[C@H]([C@H](C)C[C@@H]2CC[C@@H](OCc3cccc(-c4cnc(N5CCN(Cc6cn(CCOCCOCCOCCC(=O)NCCCCn7nc(-c8ccc9oc(N)nc9c8)c8c(N)ncnc87)nn6)C(CO)C5)nc4)c3)[C@H](OC)C2)CC(=O)[C@H](C)/C=C(\C)[C@@H](O)[C@@H](OC)C(=O)[C@H](C)C[C@H](C)/C=C/C=C/C=C/1C (stereo partly drawn) [Example 25] | < 1 nM | < 3.16 nM | 3.16 to 31.6 nM | – | – | –
CO[C@H]1C[C@@H]2CC[C@@H](C)[C@@](O)(O2)C(=O)C(=O)N2CCCC[C@H]2C(=O)O[C@H]([C@H](C)C[C@@H]2CC[C@H](n3cc(COC(=O)NCCOCCOCCOCCC(=O)NCCOCCOCCOCCC(=O)NCCCCn4nc(-c5ccc6oc(N)nc6c5)c5c(N)ncnc54)nn3)[C@H](OC)C2)C/C(=N/OCc2ccccc2)[C@H](C)/C=C(\C)[C@@H](O)[C@@H](OC)C(=O)[C@H](C)C[C@H](C)/C=C/C=C/C=C/1C [Example 156] | > 1000 nM | > 1000 nM | > 1000 nM | – | – | –
COc1cccc2cc(-c3nc([C@H]4CC[C@H](C(=O)NCCOCCOCCNC(=O)CCOCCOCCOCCOCCn5cc(CCCCO[C@@H]6CC[C@@H](C[C@@H](C)[C@@H]7C[C@@H](OC)[C@H](C)/C=C(\C)[C@@H](O)[C@@H](OC)C(=O)[C@H](C)C[C@H](C)/C=C/C=C/C=C(\C)[C@@H](OC)C[C@@H]8CC[C@@H](C)[C@@](O)(O8)C(=O)C(=O)N8CCCC[C@H]8C(=O)O7)C[C@H]6OC)nn5)CC4)n4ncnc(N)c34)[nH]c12 [Example 188] | < 1 nM | < 3.16 nM | 31.6 to 1000 nM | – | – | –
CO[C@H]1C[C@@H]2CC[C@@H](C)[C@@](O)(O2)C(=O)C(=O)N2CCCC[C@H]2C(=O)O[C@H]([C@H](C)C[C@@H]2CC[C@H](n3cc(-c4cnc(N5CCN(c6ncc(C(=O)NCCOCCOCCC(=O)NCCCCn7nc(-c8cc9cc(O)ccc9[nH]8)c8c(N)ncnc87)cn6)CC5)nc4)nn3)[C@H](OC)C2)CC(=O)[C@H](C)/C=C(\C)[C@@H](O)[C@@H](OC)C(=O)[C@H](C)C[C@H](C)/C=C/C=C/C=C/1C [Example 112] | < 1 nM | > 1000 nM | > 1000 nM | – | – | –
CCO[C@@H]1C[C@@H]([C@H](C)C[C@@H]2CC[C@H](n3cc(COC(=O)NCCOCCOCCOCCC(=O)NCCOCCOCCOCCC(=O)NCCCCn4nc(-c5cc6cc(O)ccc6[nH]5)c5c(N)ncnc54)nn3)[C@H](OC)C2)OC(=O)[C@@H]2CCCCN2C(=O)C(=O)[C@]2(O)O[C@@H](CC[C@H]2C)C[C@H](OC)/C(C)=C/C=C/C=C/[C@@H](C)C[C@@H](C)C(=O)[C@H](OC)[C@H](O)/C(C)=C/[C@H]1C [Example 150] | 10 to 1000 nM | 31.6 to 1000 nM | > 1000 nM | – | – | –
CO[C@H]1C[C@@H]2CC[C@@H](C)[C@@](O)(O2)C(=O)C(=O)N2CCCC[C@H]2C(=O)O[C@H]([C@H](C)C[C@@H]2CC[C@H](n3cc(COC(=O)NCCOCCOCCC(=O)NCc4cnc(N5CCN(c6ncc(C(=O)NCCCCn7nc(-c8cc9cc(O)ccc9[nH]8)c8c(N)ncnc87)cn6)CC5)nc4)nn3)[C@H](OC)C2)CC(=O)[C@H](C)/C=C(\C)[C@@H](O)[C@@H](OC)C(=O)[C@H](C)C[C@H](C)/C=C/C=C/C=C/1C [Example 182] | < 1 nM | > 1000 nM | > 1000 nM | – | – | –
